In ChEMBL document CHEMBL3526031, “Mechanistic studies on the absorption and disposition of scutellarin in humans: selective OATP2B1-mediated hepatic uptake is a likely key determinant for its unique pharmacokinetic characteristics” (Drug Metab Dispos, 2012):
One block for each molecule: values may come before it.

How the values were obtained:
Liver microsome [1] = test: Ratio of Vmax to Km for drug metabolism in human liver microsomes assessed as formation of scutellarein-7-O-glucuronide after 7 mins by HPLC/UV analysis; assay type: ADME
Liver microsome [2] = test: Ratio of Vmax to Km for drug metabolism in rat liver microsomes assessed as formation of scutellarein-6-O-glucuronide after 7 mins by HPLC/UV analysis; assay type: ADME
Liver microsome [3] = test: Drug metabolism in rat liver microsomes assessed as formation of scutellarein-6-O-glucuronide after 7 mins by HPLC/UV analysis; assay type: ADME
Liver microsome [4] = test: Ratio of Vmax to Km for drug metabolism in human liver microsomes assessed as formation of scutellarein-6-O-glucuronide after 7 mins by HPLC/UV analysis; assay type: ADME
[5] = Drug metabolism in rat intestinal microsomes assessed as formation of scutellarein-7-O-glucuronide after 7 mins by HPLC/UV analysis; assay type: ADME, Intestine, Microsome
[6] = Drug metabolism in human intestinal microsomes assessed as formation of scutellarein-6-O-glucuronide after 7 mins by HPLC/UV analysis; assay type: ADME, Intestine, Microsome
[7] = Ratio of Vmax to Km for drug metabolism in human intestinal microsomes assessed as formation of scutellarein-7-O-glucuronide after 7 mins by HPLC/UV analysis; assay type: ADME, Intestine, Microsome
Liver microsome [8] = test: Drug metabolism in human liver microsomes assessed as formation of scutellarein-6-O-glucuronide after 7 mins by HPLC/UV analysis; assay type: ADME
Liver microsome [9] = test: Drug metabolism in human liver microsomes assessed as formation of scutellarein-7-O-glucuronide after 7 mins by HPLC/UV analysis; assay type: ADME
[10] = Ratio of Vmax to Km for drug metabolism in rat intestinal microsomes assessed as formation of scutellarein-7-O-glucuronide after 7 mins by HPLC/UV analysis; assay type: ADME, Intestine, Microsome
[11] = target: T1, UDP-glucuronosyltransferase 1A1 (Homo sapiens, UniProt P22309); test: Drug metabolism assessed as human recombinant UGT1A1-mediated formation of scutellarein-7-O-glucuronide after 25 mins by HPLC/UV analysis; assay type: ADME
T1 sequence (P22309 whole entry): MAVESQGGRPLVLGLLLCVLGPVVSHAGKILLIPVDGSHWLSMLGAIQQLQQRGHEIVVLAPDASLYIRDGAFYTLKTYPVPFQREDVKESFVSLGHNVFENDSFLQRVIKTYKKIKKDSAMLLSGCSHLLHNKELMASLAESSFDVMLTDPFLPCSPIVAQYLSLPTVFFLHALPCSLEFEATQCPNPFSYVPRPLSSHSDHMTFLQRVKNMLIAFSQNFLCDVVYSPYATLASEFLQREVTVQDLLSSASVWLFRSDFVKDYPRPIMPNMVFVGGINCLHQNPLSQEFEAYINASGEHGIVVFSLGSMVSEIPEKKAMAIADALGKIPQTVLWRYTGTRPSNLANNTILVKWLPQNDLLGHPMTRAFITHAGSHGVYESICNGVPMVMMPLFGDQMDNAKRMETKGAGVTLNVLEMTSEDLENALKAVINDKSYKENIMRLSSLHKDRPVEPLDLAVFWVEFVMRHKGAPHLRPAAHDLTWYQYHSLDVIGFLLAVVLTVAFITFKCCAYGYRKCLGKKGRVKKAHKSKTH

Liver microsome [12] = test: Ratio of Vmax to Km for drug metabolism in rat liver microsomes assessed as formation of scutellarein-7-O-glucuronide after 7 mins by HPLC/UV analysis; assay type: ADME
[13] = Ratio of Vmax to Km for drug metabolism in human intestinal microsomes assessed as formation of scutellarein-6-O-glucuronide after 7 mins by HPLC/UV analysis; assay type: ADME, Intestine, Microsome
[14] = Drug metabolism in human intestinal microsomes assessed as formation of scutellarein-7-O-glucuronide after 7 mins by HPLC/UV analysis; assay type: ADME, Intestine, Microsome
Liver microsome [15] = test: Drug metabolism in rat liver microsomes assessed as formation of scutellarein-7-O-glucuronide after 7 mins by HPLC/UV analysis; assay type: ADME
[16] = substrate: O=C(O)[C@H]1O[C@@H](Oc2c(O)cc3oc(-c4ccc(O)cc4)cc(=O)c3c2O)[C@H](O)[C@@H](O)[C@@H]1O; test: Drug uptake assessed as OATP2B1 (unknown origin)-mediated drug transport expressed in HEK293 cells after 7 mins by LC-MS/MS analysis; assay type: ADME, cell-based, Homo sapiens

Vmax/Km (Liver microsome [1]): 1368 µL/min/mg | Vmax/Km (Liver microsome [2]): 577 µL/min/mg | Km (Liver microsome [3]): 2.86 µM | Vmax (Liver microsome [3]): 1.65 nmol/min/mg | Vmax/Km (Liver microsome [4]): 97.9 µL/min/mg | Km [5]: 9 µM | Vmax [5]: 17.3 nmol/min/mg | Km [6]: 7.06 µM | Vmax [6]: 2.41 nmol/min/mg | Vmax/Km [7]: 924 µL/min/mg | Km (Liver microsome [8]): 16.2 µM | Vmax (Liver microsome [8]): 1.59 nmol/min/mg | Km (Liver microsome [9]): 6.32 µM | Vmax (Liver microsome [9]): 8.64 nmol/min/mg | Vmax/Km [10]: 1924 µL/min/mg | Ki [11]: 41.3 µM | Vmax/Km (Liver microsome [12]): 1361 µL/min/mg | Vmax/Km [13]: 342 µL/min/mg | Ki [14]: 401 µM | Km ([14]; human, microsomes, 7 min): 5.9 µM | Vmax ([14]; human, microsomes, 7 min): 5.45 nmol/min/mg | Km (Liver microsome [15]): 7.37 µM | Vmax (Liver microsome [15]): 10 nmol/min/mg
Molecule: O=c1cc(-c2ccc(O)cc2)oc2cc(O)c(O)c(O)c12 [SCUTELLAREIN]

B1: Solute carrier organic anion transporter family member 2B1 (Homo sapiens) (protein)
chain: MGPRIGPAGEVPQVPDKETKATMGTENTPGGKASPDPQDVRPSVFHNIKLFVLCHSLLQLAQLMISGYLKSSISTVEKRFGLSSQTSGLLASFNEVGNTALIVFVSYFGSRVHRPRMIGYGAILVALAGLLMTLPHFISEPYRYDNTSPEDMPQDFKASLCLPTTSAPASAPSNGNCSSYTETQHLSVVGIMFVAQTLLGVGGVPIQPFGISYIDDFAHNSNSPLYLGILFAVTMMGPGLAFGLGSLMLRLYVDINQMPEGGISLTIKDPRWVGAWWLGFLIAAGAVALAAIPYFFFPKEMPKEKRELQFRRKVLAVTDSPARKGKDSPSKQSPGESTKKQDGLVQIAPNLTVIQFIKVFPRVLLQTLRHPIFLLVVLSQVCLSSMAAGMATFLPKFLERQFSITASYANLLIGCLSFPSVIVGIVVGGVLVKRLHLGPVGCGALCLLGMLLCLFFSLPLFFIGCSSHQIAGITHQTSAHPGLELSPSCMEACSCPLDGFNPVCDPSTRVEYITPCHAGCSSWVVQDALDNSQVFYTNCSCVVEGNPVLAGSCDSTCSHLVVPFLLLVSLGSALACLTHTPSFMLILRGVKKEDKTLAVGIQFMFLRILAWMPSPVIHGSAIDTTCVHWALSCGRRAVCRYYNNDLLRNRFIGLQFFFKTGSVICFALVLAVLRQQDKEARTKESRSSPAVEQQLLVSGPGKKPEDSRV
Km [16]: 1.77 µM
